This passage reports IC50 results from US20240383875A1, “Benzimidazole Pyridine Derivatives” (Hoffmann-La Roche Inc., priority 2022, published 2024).

Format in all cases: biochemical
One experiment deals with SIK3 (Homo sapiens, UniProt Q9Y2K2). Nature of the experiment: Enzymatic activity assay SIK3, RapidFire mass spectrometry (phosphorylation of CHK-peptide). Conditions: RapidFire MS, inhibition of SIK3; read-out: SIK3 RF IC50. The method in brief: (§1)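 Compounds (12-point, 3-fold, generally 30 μM to 170 pM) were pre-incubated 30 min at ambient temperature with SIK1 (5 nM), SIK2 (0.5 nM) or SIK3 (1.5 nM) in HEPES pH 7.0/magnesium acetate buffer. CHK-peptide (10 μM solution) and ATP (100 μM solution) were then added for 45 min before formic acid quench.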
Sequence of SIK3 (Q9Y2K2 whole entry): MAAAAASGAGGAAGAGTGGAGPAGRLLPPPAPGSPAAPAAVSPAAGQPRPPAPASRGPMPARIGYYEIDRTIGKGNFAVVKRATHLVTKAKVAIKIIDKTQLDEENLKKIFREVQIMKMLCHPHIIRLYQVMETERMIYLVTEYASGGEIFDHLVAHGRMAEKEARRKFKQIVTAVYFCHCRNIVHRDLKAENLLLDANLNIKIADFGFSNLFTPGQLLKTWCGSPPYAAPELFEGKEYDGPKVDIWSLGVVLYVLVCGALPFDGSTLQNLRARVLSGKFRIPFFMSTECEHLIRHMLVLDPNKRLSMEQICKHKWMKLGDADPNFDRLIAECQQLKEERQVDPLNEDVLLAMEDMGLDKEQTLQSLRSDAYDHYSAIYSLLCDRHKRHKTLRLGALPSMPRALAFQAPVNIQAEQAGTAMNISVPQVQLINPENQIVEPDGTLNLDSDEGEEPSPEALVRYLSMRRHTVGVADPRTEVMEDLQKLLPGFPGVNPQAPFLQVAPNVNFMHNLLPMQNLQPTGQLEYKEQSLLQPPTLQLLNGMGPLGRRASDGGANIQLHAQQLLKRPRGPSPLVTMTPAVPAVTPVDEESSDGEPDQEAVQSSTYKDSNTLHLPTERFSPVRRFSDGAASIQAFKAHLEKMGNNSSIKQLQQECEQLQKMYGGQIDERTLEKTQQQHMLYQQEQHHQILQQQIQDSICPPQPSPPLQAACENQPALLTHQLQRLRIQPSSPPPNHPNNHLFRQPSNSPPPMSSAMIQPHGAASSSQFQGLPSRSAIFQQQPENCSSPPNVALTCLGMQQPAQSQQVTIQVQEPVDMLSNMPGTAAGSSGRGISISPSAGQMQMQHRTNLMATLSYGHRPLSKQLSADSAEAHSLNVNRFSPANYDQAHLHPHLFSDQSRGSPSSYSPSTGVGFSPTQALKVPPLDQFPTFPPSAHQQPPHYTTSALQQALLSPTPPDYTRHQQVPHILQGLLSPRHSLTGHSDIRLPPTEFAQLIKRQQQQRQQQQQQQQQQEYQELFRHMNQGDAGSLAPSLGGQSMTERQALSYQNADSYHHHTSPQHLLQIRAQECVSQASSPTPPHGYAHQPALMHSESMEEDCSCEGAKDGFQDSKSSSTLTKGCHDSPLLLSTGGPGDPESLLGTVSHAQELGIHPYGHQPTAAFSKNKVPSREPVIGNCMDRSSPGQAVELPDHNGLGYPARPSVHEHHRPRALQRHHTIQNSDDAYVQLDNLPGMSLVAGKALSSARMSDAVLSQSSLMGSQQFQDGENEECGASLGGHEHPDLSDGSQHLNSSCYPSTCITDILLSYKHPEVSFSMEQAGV

For the next experiment, the target named is SIK1 (Homo sapiens, UniProt P57059). The experiment in a line: Enzymatic activity assay SIK1, RapidFire mass spectrometry (phosphorylation of CHK-peptide). Conditions: RapidFire MS, inhibition of SIK1; read-out: SIK1 RF IC50. The method in brief:
as §1

The target of another experiment is SIK2 (Homo sapiens, UniProt Q9H0K1). The experiment in a line: Enzymatic activity assay SIK2, RapidFire mass spectrometry (phosphorylation of CHK-peptide). The note with it: RapidFire MS, inhibition of SIK2; read-out: SIK2 RF IC50. The method in brief: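 SIK2 (0.5 nM) in pH 7.0 HEPES buffer with 10 mM Mg acetate phosphorylates CHK-peptide (10 μM solution) with 100 μM ATP solution, 45 min ambient, then formic acid quench.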
Sequence of SIK2 (Q9H0K1 whole entry): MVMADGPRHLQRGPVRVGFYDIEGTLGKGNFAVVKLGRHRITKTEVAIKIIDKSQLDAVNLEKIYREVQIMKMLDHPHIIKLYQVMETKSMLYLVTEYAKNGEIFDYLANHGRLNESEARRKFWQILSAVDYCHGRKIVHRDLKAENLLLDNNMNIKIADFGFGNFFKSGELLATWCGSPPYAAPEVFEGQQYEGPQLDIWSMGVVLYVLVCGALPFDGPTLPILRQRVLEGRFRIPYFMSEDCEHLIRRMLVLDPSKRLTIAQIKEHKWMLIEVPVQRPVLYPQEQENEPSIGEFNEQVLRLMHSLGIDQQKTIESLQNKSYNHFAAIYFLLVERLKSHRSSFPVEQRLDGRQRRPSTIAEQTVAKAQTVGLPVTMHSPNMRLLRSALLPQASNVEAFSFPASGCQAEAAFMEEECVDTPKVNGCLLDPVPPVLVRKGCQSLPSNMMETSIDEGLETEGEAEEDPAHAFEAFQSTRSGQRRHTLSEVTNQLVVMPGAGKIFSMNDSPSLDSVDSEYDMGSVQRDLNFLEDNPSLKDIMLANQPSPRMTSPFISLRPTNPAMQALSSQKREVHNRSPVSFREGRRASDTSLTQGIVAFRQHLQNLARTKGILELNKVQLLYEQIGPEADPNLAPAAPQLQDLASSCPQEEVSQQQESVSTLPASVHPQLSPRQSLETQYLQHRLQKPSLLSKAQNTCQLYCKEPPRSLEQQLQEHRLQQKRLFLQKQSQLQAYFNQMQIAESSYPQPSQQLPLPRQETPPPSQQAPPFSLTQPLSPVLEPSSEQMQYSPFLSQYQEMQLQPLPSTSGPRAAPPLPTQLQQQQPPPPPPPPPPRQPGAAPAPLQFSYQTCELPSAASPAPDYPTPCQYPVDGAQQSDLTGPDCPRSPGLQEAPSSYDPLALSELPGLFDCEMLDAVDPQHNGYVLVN

Sequence of SIK1 (P57059 whole entry): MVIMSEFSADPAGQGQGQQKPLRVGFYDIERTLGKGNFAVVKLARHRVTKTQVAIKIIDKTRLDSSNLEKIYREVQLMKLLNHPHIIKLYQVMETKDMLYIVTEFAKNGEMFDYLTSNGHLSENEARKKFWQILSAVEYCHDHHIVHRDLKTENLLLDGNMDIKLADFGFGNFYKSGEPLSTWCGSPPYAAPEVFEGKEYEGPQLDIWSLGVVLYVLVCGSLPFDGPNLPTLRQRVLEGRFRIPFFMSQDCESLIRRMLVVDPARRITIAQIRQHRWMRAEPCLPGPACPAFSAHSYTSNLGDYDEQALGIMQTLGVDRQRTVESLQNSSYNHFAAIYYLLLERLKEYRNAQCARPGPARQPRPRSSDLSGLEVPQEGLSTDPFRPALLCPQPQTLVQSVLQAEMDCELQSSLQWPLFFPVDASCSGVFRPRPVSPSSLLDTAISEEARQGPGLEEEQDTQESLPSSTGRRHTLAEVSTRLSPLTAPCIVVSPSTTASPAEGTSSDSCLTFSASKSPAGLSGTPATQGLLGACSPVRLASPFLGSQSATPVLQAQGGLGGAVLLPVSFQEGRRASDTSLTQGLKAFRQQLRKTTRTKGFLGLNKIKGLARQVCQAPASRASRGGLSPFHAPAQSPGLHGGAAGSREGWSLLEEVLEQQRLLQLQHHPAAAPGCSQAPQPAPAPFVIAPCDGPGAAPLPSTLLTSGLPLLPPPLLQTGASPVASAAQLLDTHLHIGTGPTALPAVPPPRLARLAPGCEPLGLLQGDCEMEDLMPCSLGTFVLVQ

For the molecule `Cc1ccc(Nc2ccc3c(c2)ncn3-c2ccc(C(C)O)c(-c3cc(OC(F)F)nnc3C)n2)nn1` (stereo not drawn) [Example 396, 1-[2-[6-(difluoromethoxy)-3-methyl-pyridazin-4-yl]-6-[5-[(6-methylpyridazin-3-yl)amino]benzimidazol-1-yl]-3-pyridyl]ethanol], the IC50 at SIK3 came out at 0.0056 µM; at SIK1, 1.12 µM; on SIK2 it was 0.0135 µM.

As for `COc1cc(C(F)F)nn1-c1nc(-n2cnc3ccc(Nc4ccc(C)nn4)cc32)ccc1C(C)O` (stereo not drawn) [Example 397, 1-[2-[3-(difluoromethyl)-5-methoxy-pyrazol-1-yl]-6-[6-[(6-methylpyridazin-3-yl)amino]benzimidazol-1-yl]-3-pyridyl]ethanol], the values for the IC50 at SIK3, on SIK1 and at SIK2 were 0.172 µM, 0.037 µM and 0.0205 µM, respectively.

Turning to `COc1cc(C(F)F)nn1-c1nc(-n2cnc3cc(Nc4ccc(C)nn4)ccc32)ccc1C(C)O` (stereo not drawn) [Example 398, 1-[2-[3-(difluoromethyl)-5-methoxy-pyrazol-1-yl]-6-[5-[(6-methylpyridazin-3-yl)amino]benzimidazol-1-yl]-3-pyridyl]ethanol], the IC50 at SIK3 came to 0.002 µM; at SIK1 it was 0.271 µM; at SIK2 it was 0.0039 µM.

As for `Cc1ccc(Nc2ccc3c(c2)ncn3-c2ccc(C(C)O)c(-c3cn(CC(F)CF)nc3C)n2)nn1` (stereo not drawn) [Example 399, 1-[2-[1-(2,3-difluoropropyl)-3-methyl-pyrazol-4-yl]-6-[5-[(6-methylpyridazin-3-yl)amino]benzimidazol-1-yl]-3-pyridyl]ethanol], the IC50 at SIK3 is 0.001 µM; at SIK1, 0.039 µM; on SIK2 it was 0.0006 µM.

With `COc1cc2c(cc1Nc1cnc(C)nc1)ncn2-c1ccc([C@H](C)O)c(-n2nc(OC(F)F)cc2C)n1` [Example 400, (1S)-1-[2-[3-(difluoromethoxy)-5-methyl-pyrazol-1-yl]-6-[6-methoxy-5-[(2-methylpyrimidin-5-yl)amino]benzimidazol-1-yl]-3-pyridyl]ethanol], the results for the IC50 at SIK3, at SIK1 and on SIK2 were 0.0078 µM, 0.002 µM and 0.0006 µM, respectively.

`Cc1ccc(Nc2ccc3c(c2)ncn3-c2ccc(C(C)O)c(-c3nc(CC(F)(F)F)nn3C)n2)nn1` (stereo not drawn) [Example 401, 1-[6-[5-[(6-methylpyridazin-3-yl)amino]benzimidazol-1-yl]-2-[2-methyl-5-(2,2,2-trifluoroethyl)-1,2,4-triazol-3-yl]-3-pyridyl]ethanol]: the results for the IC50 at SIK3, on SIK1 and on SIK2 were 0.0042 µM, 1.36 µM and 0.0104 µM, respectively.

For `Cc1ccc(Nc2cc3ncn(-c4ccc([C@H](C)O)c(-n5nc(C#N)cc5C)n4)c3cc2OC(F)F)nn1` [Example 402, 1-[6-[6-(difluoromethoxy)-5-[(6-methylpyridazin-3-yl)amino]benzimidazol-1-yl]-3-[(1S)-1-hydroxyethyl]-2-pyridyl]-5-methyl-pyrazole-3-carbonitrile], the 50% inhibitory concentration (IC50) is 0.0003 µM on SIK3, 0.005 µM at SIK1 and 0.0002 µM on SIK2.

Consider `Cc1ccc(Nc2cc3ncn(-c4ccc([C@@H](C)O)c(-n5nc(C#N)cc5C)n4)c3cc2OC(F)F)nn1` [Example 403, 1-[6-[6-(difluoromethoxy)-5-[(6-methylpyridazin-3-yl)amino]benzimidazol-1-yl]-3-[(1R)-1-hydroxyethyl]-2-pyridyl]-5-methyl-pyrazole-3-carbonitrile], for which the results for the IC50 at SIK3, at SIK1 and on SIK2 were 0.0322 µM, 0.458 µM and 0.0247 µM, respectively.

As to `Cc1ccc(Nc2ccc3c(c2)ncn3-c2ccc(C(C)O)c(-n3nc(OC(F)F)cc3C(F)F)n2)nn1` (stereo not drawn) [Example 404, 1-[2-[3-(difluoromethoxy)-5-(difluoromethyl)pyrazol-1-yl]-6-[5-[(6-methylpyridazin-3-yl)amino]benzimidazol-1-yl]-3-pyridyl]ethanol], the IC50 on SIK3 amounted to 0.0005 µM; at SIK1, 0.041 µM; on SIK2, 0.0005 µM.

Turning to `Cc1ccc(Nc2ccc3ncn(-c4ccc(C(C)O)c(-n5nc(OC(F)F)cc5C(F)F)n4)c3c2)nn1` (stereo not drawn) [Example 405], the IC50 on SIK3 turned out to be 0.15 µM; on SIK1, 0.039 µM; on SIK2, 0.0198 µM.

In the case of `Cc1ccc(Nc2cc3c(cc2CC2COC2)ncn3-c2ccc(C(C)O)c(-n3nc(OC(F)F)cc3C)n2)nn1` (stereo not drawn) [Example 406, 1-[2-[3-(difluoromethoxy)-5-methyl-pyrazol-1-yl]-6-[6-[(6-methylpyridazin-3-yl)amino]-5-(oxetan-3-ylmethyl)benzimidazol-1-yl]-3-pyridyl]ethanol], the IC50 at SIK3 amounted to 0.144 µM; at SIK1, 0.047 µM; on SIK2, 0.0134 µM.

`Cc1ccc(Nc2cc3ncn(-c4ccc(C(C)O)c(-n5nc(OC(F)F)cc5C)n4)c3cc2CC2COC2)nn1` (stereo not drawn) [Example 407, 1-[2-[3-(difluoromethoxy)-5-methyl-pyrazol-1-yl]-6-[5-[(6-methylpyridazin-3-yl)amino]-6-(oxetan-3-ylmethyl)benzimidazol-1-yl]-3-pyridyl]ethanol]: the IC50 at SIK3 was found to be 0.0229 µM; at SIK1 it was 0.321 µM; at SIK2, 0.0129 µM.

For the molecule “N-[1-[6-[3-(difluoromethyl)-5-methyl-pyrazol-1-yl]-5-(1-hydroxyethyl)-2-pyridyl]-6-fluoro-benzimidazol-5-yl] cyclopropanecarboxamide [Example 361]”, the IC50 on SIK3 stood at 0.0511 µM; at SIK1 it was 0.321 µM; on SIK2 it was 0.0639 µM.
